From PubChem BioAssay (NCI)
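Abbreviation: GI50, concentration required for 50% inhibition of growth. TGI is the concentration that stops growth completely.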

What was measured:
Test in all cases: NCI-60 cell line screen, 384-well format
HS 578T breast = system: HS 578T breast
COLO 205 colon = system: COLO 205 colon
RPMI-8226 leukemia = system: RPMI-8226 leukemia
K-562 leukemia = system: K-562 leukemia
SNB-75 CNS = system: SNB-75 CNS
TK-10 renal = system: TK-10 renal
NCI-H226 lung = system: NCI-H226 lung
SR leukemia = system: SR leukemia
SK-MEL-2 melanoma = system: SK-MEL-2 melanoma
HOP-92 NSCLC = system: HOP-92 NSCLC
U251 glioblastoma = system: U251 glioblastoma
OVCAR-5 ovarian = system: OVCAR-5 ovarian
T-47D breast = system: T-47D breast
SK-OV-3 ovarian = system: SK-OV-3 ovarian
M14 melanoma = system: M14 melanoma
SN12C renal = system: SN12C renal
HCC-2998 colon = system: HCC-2998 colon
MDA-MB-231 breast = system: MDA-MB-231 breast
LOX IMVI melanoma = system: LOX IMVI melanoma
HCT-15 colon = system: HCT-15 colon
HOP-62 NSCLC = system: HOP-62 NSCLC
NCI-H522 lung = system: NCI-H522 lung
MOLT-4 leukemia = system: MOLT-4 leukemia
PC-3 prostate = system: PC-3 prostate
SF-295 CNS = system: SF-295 CNS
SK-MEL-28 melanoma = system: SK-MEL-28 melanoma
SNB-19 CNS = system: SNB-19 CNS
NCI-H322M lung = system: NCI-H322M lung
DU-145 prostate = system: DU-145 prostate
HCT-116 colon = system: HCT-116 colon
A498 renal = system: A498 renal
ACHN renal = system: ACHN renal
RXF 393 renal = system: RXF 393 renal
NCI-H460 NSCLC = system: NCI-H460 NSCLC
NCI-H23 lung = system: NCI-H23 lung
UACC-257 melanoma = system: UACC-257 melanoma
NCI/ADR-RES ovarian = system: NCI/ADR-RES ovarian
UO-31 renal = system: UO-31 renal
786-0 renal = system: 786-0 renal
UACC-62 melanoma = system: UACC-62 melanoma
MCF7 breast = system: MCF7 breast
MALME-3M melanoma = system: MALME-3M melanoma
SW-620 colon = system: SW-620 colon
EKVX NSCLC = system: EKVX NSCLC
OVCAR-3 ovarian = system: OVCAR-3 ovarian
SF-268 CNS = system: SF-268 CNS
SK-MEL-5 melanoma = system: SK-MEL-5 melanoma

## CC1(N)CCN(c2cccnc2NC(=O)c2nc(-c3ncccc3C(F)(F)F)cnc2N)CC1
HS 578T breast
  GI50: 15.9 µM
  TGI: 33.2 µM
COLO 205 colon
  GI50: 17.9 µM
  TGI: > 54.6 µM
RPMI-8226 leukemia
  GI50: 10.4 µM
  TGI: 32.8 µM
K-562 leukemia
  GI50: 16.3 µM
  TGI: 31.3 µM
SNB-75 CNS
  GI50: 17 µM
  TGI: 48.2 µM
TK-10 renal
  GI50: 7.5 µM
  TGI: 26.1 µM
NCI-H226 lung
  GI50: 16.9 µM
  TGI: 47.4 µM
SR leukemia
  GI50: 9.47 µM
  TGI: 21.5 µM
SK-MEL-2 melanoma
  GI50: 18.4 µM
  TGI: 47.2 µM
HOP-92 NSCLC
  GI50: 20.4 µM
  TGI: 57.6 µM
U251 glioblastoma
  GI50: 13.6 µM
  TGI: 30.5 µM
OVCAR-5 ovarian
  GI50: 16.8 µM
  TGI: 48.1 µM
T-47D breast
  GI50: 11.6 µM
  TGI: 26.9 µM
SK-OV-3 ovarian
  GI50: 17.8 µM
  TGI: 38.6 µM
M14 melanoma
  GI50: 20.3 µM
  TGI: 40.3 µM
SN12C renal
  GI50: 21 µM
  TGI: 56.8 µM
HCC-2998 colon
  GI50: 17.9 µM
  TGI: 33.4 µM
MDA-MB-231 breast
  GI50: 20.5 µM
  TGI: 46.9 µM
LOX IMVI melanoma
  GI50: 19 µM
  TGI: 33.6 µM
HCT-15 colon
  GI50: 20.7 µM
  TGI: 56.3 µM
HOP-62 NSCLC
  GI50: 28.8 µM
  TGI: > 77.6 µM
NCI-H522 lung
  GI50: 4.86 µM
  TGI: 18.8 µM
MOLT-4 leukemia
  GI50: 12.8 µM
  TGI: 25.6 µM
PC-3 prostate
  GI50: 16.7 µM
  TGI: 57 µM
SF-295 CNS
  GI50: > 49.3 µM
  TGI: > 72.6 µM
SK-MEL-28 melanoma
  GI50: 24.2 µM
  TGI: > 62.3 µM
SNB-19 CNS
  GI50: 27.8 µM
  TGI: > 76.7 µM
NCI-H322M lung
  GI50: 23.7 µM
  TGI: > 60 µM
DU-145 prostate
  GI50: 19.3 µM
  TGI: > 58.8 µM
HCT-116 colon
  GI50: 11.6 µM
  TGI: 26 µM
A498 renal
  GI50: 8.29 µM
  TGI: 22.8 µM
ACHN renal
  GI50: 22.7 µM
  TGI: > 94.7 µM
RXF 393 renal
  GI50: 12.5 µM
  TGI: 25.5 µM
NCI-H460 NSCLC
  GI50: 17.6 µM
  TGI: 32.4 µM
NCI-H23 lung
  GI50: 29.7 µM
  TGI: > 78.7 µM
UACC-257 melanoma
  GI50: 7.77 µM
  TGI: 20.8 µM
NCI/ADR-RES ovarian
  GI50: > 100 µM
  TGI: > 100 µM
UO-31 renal
  GI50: 31 µM
  TGI: > 100 µM
786-0 renal
  GI50: 8.25 µM
  TGI: 24 µM
UACC-62 melanoma
  GI50: 19.4 µM
  TGI: > 53.4 µM
MCF7 breast
  GI50: 24.6 µM
  TGI: > 54.9 µM
MALME-3M melanoma
  GI50: 14.8 µM
  TGI: 28.1 µM
SW-620 colon
  GI50: 19.3 µM
  TGI: 60.6 µM
EKVX NSCLC
  GI50: 7.15 µM
  TGI: 38.9 µM
OVCAR-3 ovarian
  GI50: 15.1 µM
  TGI: 44.5 µM
SF-268 CNS
  GI50: 19.9 µM
  TGI: 47 µM
SK-MEL-5 melanoma
  GI50: 18.2 µM
  TGI: 34.3 µM
